Measurements from patent US20200268804A1, “METHODS AND COMPOSITIONS TO MAINTAIN STEM CELL QUIESCENCE” (The Board of Trustees of the Leland Stanford Junior …, priority 2016, published 2020).

System: quiescent MuSCs
Test: Q-RT-PCR screening of candidate molecules for promotion of MuSC quiescence
Assay type: cell-based, mouse
Conditions: 500 quiescent MuSCs cultured 2.5 days with the molecule; gene expression signature
Excerpt: FIG. 8. Screening of molecules titrated at different concentrations. Heat map analysis of gene expression profiles obtained from MuSCs cultured in different concentrations of candidate molecules. In 96 well plates, 500 MuSCs were directly isolated by FACS and cultured in the presence of the candidate molecules titrated at different concentrations. After 2.5 days, cells were collected for combinatorial Q-RT-PCR to screen for the conditions that result mostly closely resemble freshly isolated MuSCs based on the gene expression profiles. A heat map for absolute deviations from expression levels of freshly isolated quiescent MuSCs (QSC) is shown. On the X axis, the molecules tested and the different dilutions employed from the working concentrations are indicated as in FIG. 16. On the Y axis the names of the genes that were tested are listed. The gene names were organized in general functional groups. Each functional group is based on the main function and role in MuSCs.
Knowing that quiescent MuSCs have a unique transcriptional signature, we employed combinatorial QRT-PCR to screen for molecules that, when added to the medium, would promote MuSC quiescence. […]
Single Cell Q-RT-PCR. […] Biomark data was analyzed using Q-RT-PCR Analysis software (Fluidigm). […] For each amplicon, a limit of detection (LOD) was determined by running 10-fold serial dilutions of embryonic cDNA in 6 replicates. […]

In the case of Nc1nc(Nc2ccc(S(N)(=O)=O)cc2)nn1C(=O)c1c(F)cccc1F [JMJ-7706621], the quiescence-promoting activity is reported as “novel quiescence-promoting activity”.
